Measurements taken from patent EP4818330A1, “PHARMACEUTICAL PREPARATION FOR DIAGNOSING AND TREATING ALZHEIMER'S DISEASE” (Shanghai East Hospital Tongji University, priority 2023, dated 2025).
Several values for one entry are separate records, joined by “and”; a condition that tells them apart may be missing. Equal values may be shown once. Read-outs that look alike come from different tables or passages of the source.

Assays:
APP/PS1 transgenic mice [1] = test: Dendritic spine density of hippocampal neurons in brain slices of AD mice; type: in vivo
Protocol: (§1) Thy1-GFP mice are commonly used in neuroscience research. The fluorescence labeling of GFP facilitates convenient observation and tracking of specific cell types, especially neurons. APP/PS1 transgenic mice (an animal model of Alzheimer's disease) were crossed with Thy1-GFP mice. The crossed mice aged 5 months were intraperitoneally injected with a compound solution at a concentration of 2.5 mg/kg for 1 month continuously. Subsequently, the crossed mice aged 6 months were subjected to behavioral test (Morris water maze MWM experiment) to evaluate learning and memory abilities (as shown in FIG. 22).
After the water maze behavioral test, the mice were anesthetized and perfused, and then brain tissue sections were taken. The density of neuronal dendritic spines was observed under a confocal fluorescence microscope using GFP green fluorescence.

APP/PS1 transgenic mice [2] = test: Morris water maze in APP/PS1 x Thy1-GFP mice; type: in vivo
Protocol: as §1
Water maze: A water maze experimental apparatus is circular stainless steel with a diameter of 100 cm and a height of 50 cm, wherein a pool is equally divided into 4 quadrants according to the 4 orientations of east, south, west and north, a circular black hidden platform with a diameter of 9 cm and a height of 27 cm is placed in the center of the target quadrant. […] The movement trajectory of the mouse was synchronously recorded by the camera directly above the water pool, and analyzed by the EthovisionXT monitoring and analysis system. […] The mouse swam in the water for 60 s, and the percentage of time the mouse spent in the target platform quadrant was recorded, representing the learning and memory ability of the mouse.

primary neurons = test: Dendritic spine density of neurons in the in vitro AD model (APPsw lentivirus); type: cell-based, mouse
Protocol: The extraction and culture of primary neurons were the same as those hereinabove (toxicity experiment section). Transfection of neurons using plasmid calcium: A neuron culture medium (half medium change) was aspirated and placed in a 37°C water bath for later use, and Neurobasel A was added to a 24-well plate. 500 ng of plasmid DNA was dissolved in 12.5 µl of CaCl2 solution, and then centrifuged. 12.5 µl of HBS was added to the EP tube, and then centrifuged. The mixed solution hereinabove was added to the 24-well plate. The 24-well plate was gently shaken, and then placed back into a 37°C incubator to stand for 90 min. […] On day 6 of in vitro culture (DIV6), the original medium was semi-quantitatively collected, and the lentivirus stock solution (100 µl) was diluted with the original medium (10 ml) at a ratio of […]. […] Primary neurons were transfected with calcium-transformed GFP plasmids on day 4 of in vitro culture to enable the neurons to carry green fluorescence for observing neuronal dendrites. […] After 14 days of in vitro culture, the neurons were fixed with 4% PFA, photographed under a 100× oil immersion lens of a confocal fluorescence microscope, and the dendritic spine density per 10 µm length of the neurons was calculated by observing GFP green fluorescence.

[3] = Drug content in brain tissue after single intraperitoneal administration; type: in vivo, Balb/c strain mice; conditions: mice; for concentration at 0.5 h: brain, ip
Protocol: Research method: first, Balb/c strain mice were administered with a single intraperitoneal injection at a concentration of 2.5 mg/kg, and the content of the compound in serum was detected at 0.25, 0.5, 1, 2, 4, 6, 8 and 24 h after injection; second, brain tissues of mice at 0.5, 4 and 24 h after injection were collected to detect the compound content, so as to evaluate the blood-brain barrier penetration rate.

CCOC(=O)c1[nH]c(C)c(CCC(=O)N2CCCC(C(=O)NCCN3CCCCCC3)C2)c1C (stereo not drawn) [compound of Formula I, ETHYL4-[3-(3-{[2-(AZEPAN-1-YL)ETHYL]CARBAMOYL}PIPERIDIN-1-YL)-3-OXOPROPYL]-3, 5-DIMETHYL-1H-PYRROLE-2-CARBOXYLATE]
dendritic spine density of hippocampal neurons (normalized to the control group) (APP/PS1 transgenic mice [1]; APP SW + intervention, IP 2.5 mg/kg for 1 month, brain slices, individual neurons, 2.5 mg/kg): 0.7721 and 0.7284 and 0.6276 and 0.7954 and 0.8425 and 0.7853 | dendritic spine density of hippocampal neurons (APP/PS1 transgenic mice [1]; after compound intervention vs AD mice): increased | time percentage in the platform quadrant (APP/PS1 transgenic mice [2]; APP/PS1+ intervention, IP 2.5 mg/kg for 1 month, day 7 spatial exploration, individual animals, 2.5 mg/kg): 12.17% and 26.78% and 27.89% and 19.335% and 31.945% and 22% and 29.11% | time percentage of mice in the platform quadrant (APP/PS1 transgenic mice [2]; after compound intervention vs APP/PS1 mice): increased | number of dendritic spines of neurons (normalized to the control group) (primary neurons; APP SW+intervention, compound 2.5 µmol for 24 h, individual neurons): 0.7841 and 0.7357 and 0.6856 and 0.8651 and 0.6806 and 0.6909 and 0.6481 and 0.7086 | dendritic spine density (primary neurons; in vitro AD model (APPsw virus), after compound intervention, group comparison): increased | concentration at 0.5 h ([3]; Balb/c, mouse, 2.5 mg/kg, IP 2.5 mg/kg, 0.5 hr, individual animals, read-out: Concentration (brain tissue)): 16.8 ng/mL | concentration at 0.5 h ([3]; Balb/c, mouse, 2.5 mg/kg, IP 2.5 mg/kg, 0.5 hr, mean of 3 animals, read-out: Concentration (brain tissue) Mean): 13.8 ng/mL | Kp at 0.5 h ([3]; Balb/c, mouse, IP 2.5 mg/kg, 0.5 hr, brain tissue vs blood): 0.037 | Concentration (brain tissue) ([3]; IP 2.5 mg/kg, 0.5 hr, individual animals, 2.5 mg/kg): 10.3 ng/mL and 14.4 ng/mL | Concentration (brain tissue) ([3]; IP 2.5 mg/kg, 4 hr, individual animals): BLOQ (BLOQ = Below LOQ, LOQ = 2.0 ng/mL) | Concentration (brain tissue) Mean ([3]; IP 2.5 mg/kg, 4 hr, mean of 3 animals): BLOQ (BLOQ = Below LOQ, LOQ = 2.0 ng/mL) | Concentration (brain tissue) ([3]; IP 2.5 mg/kg, 24 hr, individual animals): BLOQ (BLOQ = Below LOQ, LOQ = 2.0 ng/mL) | Concentration (brain tissue) Mean ([3]; IP 2.5 mg/kg, 24 hr, mean of 3 animals): BLOQ (BLOQ = Below LOQ, LOQ = 2.0 ng/mL) | blood-brain barrier penetration ([3]; brain tissue 0.5 h after single IP injection 2.5 mg/kg): capable of crossing the blood-brain barrier
